Reference: ChEMBL document CHEMBL1201862, “PubChem BioAssay data set” (2004)
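Values below derive from 48-hour exposures of cells grown in 96-well plates, with endpoints linearly interpolated between the two concentrations bracketing the appropriate inhibition level. GI50 = concentration required for 50% inhibition of growth.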 Activity calls are given as the source filed them. Cut-off read from the data, not from the text of the source: active = GI50 up to about 1.1 µM and inactive = higher.

Legend:
Assay in all cases: DTP human tumour cell line panel, 48 h
ACHN = tested on: ACHN
EKVX = tested on: EKVX
SF-268 = tested on: SF-268
M14 = tested on: M14
SK-OV-3 = tested on: SK-OV-3
K562 = tested on: K562
HOP-92 = tested on: HOP-92
HT-29 = tested on: HT-29
786-0 = tested on: 786-0
NCI-H23 = tested on: NCI-H23
SNB-19 = tested on: SNB-19
NCI-H460 = tested on: NCI-H460
A549 = tested on: A549
UACC-257 = tested on: UACC-257
U-251 = tested on: U-251
SR = tested on: SR

SMILES	GI50 (ACHN)	GI50 (EKVX)	GI50 (SF-268)	GI50 (M14)	GI50 (SK-OV-3)	GI50 (K562)	GI50 (HOP-92)	GI50 (HT-29)	GI50 (786-0)	GI50 (NCI-H23)	GI50 (SNB-19)	GI50 (NCI-H460)	GI50 (A549)	GI50 (UACC-257)	GI50 (U-251)	GI50 (SR)
CCCCCCCCCCCCCC(=O)OCC1OC(=O)CC1O (stereo unspecified)	> 100 µM (inactive)	> 100 µM (inactive)	> 100 µM (inactive)	21.9 µM (inactive)	> 100 µM (inactive)	24.9 µM (inactive)	7.36 µM (inactive)	94.4 µM (inactive)	> 100 µM (inactive)	> 100 µM (inactive)	> 100 µM (inactive)	> 100 µM (inactive)	> 100 µM (inactive)	> 100 µM (inactive)	> 100 µM (inactive)	
CC(C)c1ccccc1NC(=O)/C(Cl)=C1/Sc2ccccc2NC1=O	37.4 µM (inactive)	49.1 µM (inactive)	34 µM (inactive)	22.4 µM (inactive)	18.4 µM (inactive)	14.8 µM (inactive)	11.6 µM (inactive)		30.5 µM (inactive)	19.6 µM (inactive)	38.5 µM (inactive)	34.5 µM (inactive)	32.3 µM (inactive)		35 µM (inactive)	
Nc1nc(N)c2ncn(CCCC(c3ccccc3)P(=O)(O)O)c2n1 (stereo unspecified)	> 100 µM (inactive)		> 100 µM (inactive)	> 100 µM (inactive)	> 100 µM (inactive)	> 100 µM (inactive)	> 100 µM (inactive)	> 100 µM (inactive)	> 100 µM (inactive)	19.2 µM (inactive)	> 100 µM (inactive)	> 100 µM (inactive)	> 100 µM (inactive)	> 100 µM (inactive)	> 100 µM (inactive)	> 100 µM (inactive)
CCOC(=O)C1S/C(=N/c2ccc(Cl)cc2C)N=C1C (stereo unspecified)	19.8 µM (inactive)	32.2 µM (inactive)	15.7 µM (inactive)	19.5 µM (inactive)		17.7 µM (inactive)	15.5 µM (inactive)	16.1 µM (inactive)	15.9 µM (inactive)	16.5 µM (inactive)	26.6 µM (inactive)	22 µM (inactive)	21.4 µM (inactive)	22.2 µM (inactive)	15.8 µM (inactive)	
CCCCCCCCCCCCCCCC(=O)OCC1OC(n2cc(F)c(=O)[nH]c2=O)C(NC(=O)N(CCCl)N=O)C(O)C1O (stereo unspecified)	1.64 µM (inactive)	2.58 µM (inactive)	0.0246 µM (active)	4.06 µM (inactive)	5.45 µM (inactive)	1.76 µM (inactive)	3.65 µM (inactive)	4.68 µM (inactive)	0.166 µM (active)	0.731 µM (active)	0.979 µM (active)	0.152 µM (active)	0.767 µM (active)	5.94 µM (inactive)	0.0585 µM (active)	
CCOC(=O)C1(Cc2ccccc2)CCCCCN1 (stereo unspecified)	> 100 µM (inactive)	> 100 µM (inactive)	> 100 µM (inactive)	> 100 µM (inactive)	> 100 µM (inactive)	> 100 µM (inactive)	> 100 µM (inactive)	> 100 µM (inactive)	> 100 µM (inactive)	> 100 µM (inactive)		> 100 µM (inactive)	> 100 µM (inactive)		> 100 µM (inactive)	
Oc1cc(-c2ccc[nH]2)nc2cc3c(cc12)OCO3	88.1 µM (inactive)	55.3 µM (inactive)		32.2 µM (inactive)		17.1 µM (inactive)		29.8 µM (inactive)	40.6 µM (inactive)		37.7 µM (inactive)	25.2 µM (inactive)	53.8 µM (inactive)	64.7 µM (inactive)	65.9 µM (inactive)	37.2 µM (inactive)
C/C(=N\NC(=O)C[n+]1ccccc1)c1sc(-c2nc(C)c(/C(C)=N/NC(=O)C[n+]3ccccc3)s2)nc1C	> 100 µM (inactive)	> 100 µM (inactive)	> 100 µM (inactive)	> 100 µM (inactive)	> 100 µM (inactive)	41.1 µM (inactive)	> 100 µM (inactive)	36.3 µM (inactive)	> 100 µM (inactive)	> 100 µM (inactive)	> 100 µM (inactive)	> 100 µM (inactive)	> 100 µM (inactive)	> 100 µM (inactive)	> 100 µM (inactive)	
CCOC(=O)C1=C(C)N(NC(N)=O)C2(N)N(NC(N)=O)C(C)=C(C(=O)OCC)C12C(=O)OCC (stereo unspecified)	> 100 µM (inactive)	> 100 µM (inactive)	> 100 µM (inactive)	> 100 µM (inactive)	> 100 µM (inactive)	> 100 µM (inactive)		> 100 µM (inactive)	> 100 µM (inactive)		> 100 µM (inactive)	> 100 µM (inactive)	> 100 µM (inactive)	> 100 µM (inactive)	> 100 µM (inactive)	> 100 µM (inactive)
COc1ccc(C=O)c([N+](=O)[O-])c1	58.6 µM (inactive)	99.5 µM (inactive)	> 100 µM (inactive)	38.1 µM (inactive)	> 100 µM (inactive)	3.71 µM (inactive)	81.3 µM (inactive)	16.9 µM (inactive)	66.2 µM (inactive)	> 100 µM (inactive)	64.6 µM (inactive)	37.5 µM (inactive)	> 100 µM (inactive)	37.7 µM (inactive)	13.2 µM (inactive)	
